In patent US9173878B2, “Brain function improving agent” (Tohoku University, priority 2012, dated 2015):

Assays:
[1] = test system: non-transfected mouse neuroblastoma cell line Neuro2A; test: Calcium imaging (Fura-2) in T-type calcium channel non-expressing Neuro2A cells; type: cell-based; settings: SAK3 100 pM
Procedure: The cells of mouse neuroblastoma cell line Neuro2A were purchased from the Human Science Research Resources Bank (#IFO50081, Osaka, Japan). […] Then, the Neuro2A cells were seeded to a glass bottom dish at a concentration of 1 to 2×10^6 cell/φ35-mm dish, and cultivated for 24 hours in a standard culture medium, and the cells were transfected using Lipofectamine 2000 (Invitrogen, Carsbad, Calif., USA) and using a plasmid vector containing a T-type calcium channel (Cav 3.1) genes (serum-free culture of Lipofectamine 2000: DNA=1 μl: 1 μg, 1.5 ml). The T-type calcium channel (Cav 3.1) gene, the plasmid vector pCMV-SPORT6, and the Lipofectamine 2000 were respectively purchased from OriGene Technologies, Inc., Thermo Fisher Scientific Ltd., and Invitrogen, and the transfection was performed according to the protocol attached to Lipofectamine 2000 other than the rate adjustment of the Lipofectamine 2000 and plasmid vector. The serum-free culture was replaced with a standard culture 6 hours after transfect, and calcium imaging (calcium concentration measurement) was performed after Cav 3.1 expression was confirmed after 48 hours of culture. T-type calcium channel expressing Neuor2A cells were dispersed in a glass bottom dish, and 2.5 μM of Fura-2-AM (Sigma, St Louis, Mo., USA) was added to the dish in perfusion (Krebs-Hepes buffer; KRH), then the dish was incubated at 37° C. for 30 minutes. A Fura-2-AM-free KRH was replaced with perfusion, and the Neuro2A cells were stimulized with SAK3 (100 pM) as the intracellular calcium was measured with a fluorescent microscope, then the cells were further stimulized with nicotin (1 μM), ATP (0.1 μM), DHPG (20 μM), as necessary.

CaMKII = CaMKII self-phosphorylation (activation) in hippocampus CA1 region, immunoblot; type: cell-based, mouse; settings: hippocampus CA1 region 60 minutes after LTP, 100 pM
Procedure: The brain of a male mouse C57BL/6 (10-12 weeks old) was sagitally sectioned, then a coronal section brain slice (400 μm) including a hippocampus CA1 region was prepared. The hippocampus slice was recovered in an artificial cerebrospinal fluid (126 mM NaCl, 5 mM KCl, 26 mM NaHCO3, 1.3 mM MgSO4-7H2O, 1.26 mM KH2PO4, 2.4 mM CaCl2-2H2O, 10 mM glucose) saturated by a 95% O2/5% CO2 gas at 34° C. for 2 hours. The hippocampus slice was transferred to a measurement chamber, and ST101 (100 pM), SAK1 (100 pM), SAK3 (100 pM) were added to the artificial cerebrospinal fluid, and perfused. Then, the Schaffer branch to be input to the hippocampus CA1 region and the commissural fibers were stimulated by stimulus electrodes, and the postsynaptic potential (fEPSP; field excitatory postsynaptic potential) in the CA1 region induced thereby was measured. […]
The above frozen mouse brain slice segment (hippocampus CA1 region) is used for homogenization on ice by adding 150 μL homogenizing buffer (50 mM Tris-HCl pH 7.5, 0.5% Triton X-100, 4 mM EGTA, 0.5 M NaCl, 10 mM EDTA, 1 mM Na3VO4, 30 mM sodium pyrophosphate, 50 mM NaF, 1 mM DTT, 100 nM calyculin A, 50 μg/mL leupeptin, 25 μg/mL pepstatin A, 50 μg/mL trypsin inhibitor) per sample. […] The protein concentration was measured by the Bradford method using a part of the supernatant. […]

[2] = test system: olfactolectomy mouse (OBX mouse); test: Novel object recognition test in olfactolectomized (OBX) mouse; type: in vivo; settings: 1 mg/kg administered into the abdominal, 30 minutes before test
Procedure: A 10 weeks old DDY male mouse (Nippon SLC, Hamamatsu, Japan) was used in the experiment. The animal was bred in an animal experiment facility in the Pharmaceutical Research Department of the Tohoku University Graduate School under a certain condition (temperature 22±2° C., 12 h: 12 h light-dark cycle) by freely providing water and a feed. Note that the handling of animals and animal experiments in the present paper was performed with an approval of Tohoku University Experimental Animal Committee and under the Tohoku University Animal Experiment Guideline.
An olfactolectomy mouse (OBX mouse) was prepared using a DDY male mouse. The olfactolectomy operation was performed under the condition of anesthesia by pentobarbital sodium (50 mg/kg i.p.; Dainippon, Osaka, Japan). The mouse was fixed to a brain brace, and the skull bone above the olfactory bulb was drilled to open a hole of 1 mm diameter. […]
Novel object recognition test: The present test uses a mouse's characteristic of preferring novel objects, and the mouse was allowed to freely explore the device in which 2 objects are placed for 10 minutes (training session). […] The numbers of contacts for the 2 objects in the training session and the trial session were measured. The percentage (%) of the number of contacts of the novel object against the number of total contacts in the trial session was calculated as the Discrimination index.

## CCOC(=O)C1=C(N2CCCCC2)C2(CC1=O)C(=O)N=C1C(C)=CC=CN12 (stereo not shown) [SAK3]
[1]; Cav3.1 non-expressing cell
  change in calcium concentration after SAK3 addition: there was no change in the calcium concentration
[1]; Cav3.1 non-transfected cells
  amount of intracellular influent calcium ion induced by SAK3: do not show the change in the amount of influent calcium ion
CaMKII
  phosphorylated CaMKII / CaMKII activation: an increase of phosphorylated CaMKII and a potentiation of CaMKII activation were confirmed
[2]
  improvement of cognitive dysfunction by olfactolectomy (novel object recognition test): almost completely improved
